According to patent publication US11072601B2, “μ-opioid receptor agonist and preparation method therefor and use thereof in field of medicine” (SHANGHAI SYNERGY PHARMACEUTICAL SCIENCES CO., LTD., priority 2017, dated 2021):

Key:
[1] = biological target: T1, β-arrestin signaling pathway of MOR (Homo sapiens, UniProt P35372); assay: cell-based; settings: PathHunter HEK293 cells, relative to endorphin MAX control
T1 construct: host or cells: HEK293 (PathHunter cell line)

[2] = biological target: T2, cAMP pathway of MOR receptor (Homo sapiens, UniProt P35372); assay: cell-based; settings: cAMP Hunter HEK293 cells, forskolin-induced cAMP; read-out: EC50 of cAMP levels affected by agonistic effect on MOR
T2 construct: host or cells: HEK293 (cAMP Hunter cell line)
Description: The purpose of this experiment was to test the agonistic effect of the compounds of the invention on the cAMP pathway of MOR and to evaluate the in vitro activity of the compounds according to EC50.
In this experiment, HitHunter cAMP Assay EFC technology of DiscoverX was used to measure the cAMP level in cells and monitor the functional status of G-protein coupled receptors (GPCRs).
The amount of signal produced was directly proportional to the amount of cAMP in the cell.
The MOR receptor was bound to the inhibitory Gαi protein, so forskolin (for inducing cAMP signal) was used to induce cAMP expression in the experiment, and the inhibitory effect of the compounds on the above induction was measured.
The cAMP Hunter cell line (HEK293, DiscoverX) was removed from the freezer and expanded according to the Cell Standard Operating Procedure (SOP), 20 μL was collected and inoculated into a 384-well microplate and incubated at 37° C. overnight.
The HitHunter cAMP Assay test kit (DiscoverX, 90-0075sm) was used, the kit contained cAMP buffer, cAMP detection solution, and cAMP working solution A.
The formula was used to calculate the percentage of signal activity per well=100%×(1−(average RLU of the test samples−average RLU of the MAX controls)/(average RLU of the solvent controls−average RLU of the MAX controls)). wherein, the MAX control referred to the fluorescence signal value of the endorphin solution, and the solvent control referred to the fluorescence signal value of DMSO. The DiscoveRx CBIS data analysis workstation (ChemInnovation, CA) was used to perform statistical analysis of the percentage of signal activity and the concentration of the compounds by the agonist formula (comes with the software, universal) to calculate the EC50 value.

μ opioid receptor (MOR) = biological target: T3, μ opioid receptor (MOR) (Homo sapiens, UniProt P35372); assay: cell-based; settings: HEK293 stably expressing μ opioid receptor, FLIPR calcium
T3 construct: host or cells: HEK293
Method: The purpose of the experiment was to test the agonistic effects of the compounds of the present invention on μ opioid receptor (MOR), κ opioid receptor (KOR) and δ opioid receptor (DOR), and to evaluate in vitro activity of the compounds according to the half-maximal effect concentration (EC50).
This test was performed using HEK293 cell lines (the stably expressed cell lines were provided by WuXi AppTec) which stably expressed μ opioid receptor, δ opioid receptor or κ opioid receptor respectively. […] The cells were centrifuged at 1000 rpm for 5 minutes at room temperature to precipitate. The supernatant was sucked out, be careful not to suck out cells. The precipitate was flicked into the loose cells and resuspend in 45 ml DMEM medium. The Vi-CELL XR automatic cell viability detector (BECKMAN COULTER) was used to count the cells, and the cell concentration was adjusted to 10×10^5 cells/ml based on the counting results.
Preparation of probenecid mother solution: 1 ml of FLIPR test solution was added to 77 mg probenecid to prepare a 250 mM solution. The solution was freshly prepared just before use.
The solution was freshly prepared just before use.
The cell plate prepared above was removed from the incubator and 20 ul 2× Fluo-4 Direct™ buffer was added thereto. The final volume in the cell plate was […]. The plate was incubated at 37° C., under 5% CO2 for 50 minutes, and incubated at room temperature for 10 minutes, then was placed into the FLIPR instrument (MD), and the compound plate and pipette box was placed into. The protocol was run on the […] platform, 10 μl of positive drug or the test compound was transfered to the cell plate from the compound plate, and the fluorescent signal was read.
The signal value generated by each well was calculated, and the calculation formula was that: the activity %=(signal value of the test compound−signal value of the solvent)/(signal value of the positive drug−signal value of the solvent).

SD rats = assay: Respiratory depression in rats, arterial blood gas PCO2; format: in vivo; settings: for PCO2, 5 min before administration: arterial blood; for PCO2, 5 min after administration / PCO2, 30 min after administration / PCO2, 60 min after administration / PCO2, 120 min after administration: intravenous single dose 0.3 mg/kg (morphine 24 mg/kg)
Description: 8-week-old male SD rats weighing 200 g-300 g were used as experimental animals to determine the effect of the compound of Example H05, the compound of Example H08, the compound of Example H10, the compound of Example H16, the compound of Example H17, the compound of Example H18, the compound of Example H21, and the compound of Example H24 on the partial pressure of blood in rats after intravenous administration. The effects of the compounds of the invention on respiratory depression were investigated.
After the rats were acclimatized to the experimental environment for 3 days, each animal was anesthetized with sodium pentobarbital (50-60 mg/kg, ip), and then the right common carotid artery was isolated and the unilateral carotid artery tube-bury surgery was performed (PE60, ID*OD*length as 0.76 mm*1.22 mm*20 cm, buried into the artery 1 cm deep, and the tube was filled with heparin sodium tube sealing solution).

[3] = Pharmacokinetic test in rats, intravenous; format: in vivo; settings: male, SD, rat, plasma, intravenous 1 mg/kg; for AUC: read-out: curve area (AUC); for half-life: read-out: half life (T½) (converted); for Cmax: read-out: plasma concentration (Cmax)
Description: 8-week-old male SD rats weighing 200-300 g were used as experimental animals, and LC/MS/MS method was used to determine the drug concentration in plasma at different times after the administration of the compound of Example H01, the compound of Example H04, the compound of Example H05, the compound of Example H07, the compound of Example H16, the compound of Example H17, the compound of Example H18, the compound of Example H21, and the compound of Example H24. The pharmacokinetic behavior of the compounds of the present invention in rats was studied, and its pharmacokinetic characteristics were evaluated.
A certain amount of the compounds were weighed, and dissolved in ethanol/castor oil/water=10/10/80 to form a uniform solution.
The above compounds were administered intravenously to rats at a dose of 1 mg/kg, and 0.2 ml of blood was collected from the orbit at 0.083, 0.25, 0.5, 1.0, 2.0, 4.0, 6.0, 8.0, 12.0, 24.0 hours before and after administration, and placed in an anticoagulant tube, the plasma was separated by centrifugation at 6,000 rpm for 10 minutes at 4° C., and stored at −80° C.
50 μL of plasma was taken at different times, 150 μL of acetonitrile solution containing internal standard tolbutamide (200 ng/mL) was added, the system was mixed and shaked for 5 minutes, 12000 rpm, centrifuged for 5 minutes, 100 μL of supernatant was removed, and then mixed with 200 μL of water, then the sample was loaded for analysis. The internal standard tolbutamide solid (Aladdin, T129578) powder was dissolved in DMSO to prepare into a 1 mg/mL stock solution. The stock solution was diluted with 100% acetonitrile to obtain a solution of 200 ng/mL as a protein precipitator.
The liquid chromatography system was an LC-20AD UFLC high performance liquid chromatography system (Shimadzu, LC-20AD). The mass spectrometry system was an AB Sciex API4000 triple quadrupole mass spectrometer equipped with an electrospray ionization source (ESI) (Applied Biosystems, Canada). The software used to control the liquid-mass coanalyzer and quantitative analysis was Analyst 1.6 (Applied Biosystems, Canada), and the pharmacokinetic parameters were analyzed using WinNonlin (version 5.2, Pharsight, Mountain View, Calif.) non-compartment model.
Liquid chromatographic separation was performed using AQ-C18 column (50×2.1 mm, internal diameter of […]). The column temperature was maintained at room temperature.
The compound to be tested was dissolved in DMSO to prepare a stock solution with a concentration of 1 mg/mL, and diluted with 70% acetonitrile to obtain a series of standard working solutions with concentrations of 30, 10, 3, 1, 0.3, 0.1, 0.03, and 0.01. μg/mL, and a series of standard quality control solutions (24, 8 and 0.03 μg/mL). 5 μL of standard solution and 45 μL of blank plasma matrix were mixed uniformity to obtain standard solutions (3000, 1000, 300, 100, 30, 10, 3, and 1 ng/mL) and quality control standards (plasma samples: 2400, 800, 80, and 3 ng/mL) at each concentration point of the standard curve.

T3 sequence (P35372 whole entry, species assumed): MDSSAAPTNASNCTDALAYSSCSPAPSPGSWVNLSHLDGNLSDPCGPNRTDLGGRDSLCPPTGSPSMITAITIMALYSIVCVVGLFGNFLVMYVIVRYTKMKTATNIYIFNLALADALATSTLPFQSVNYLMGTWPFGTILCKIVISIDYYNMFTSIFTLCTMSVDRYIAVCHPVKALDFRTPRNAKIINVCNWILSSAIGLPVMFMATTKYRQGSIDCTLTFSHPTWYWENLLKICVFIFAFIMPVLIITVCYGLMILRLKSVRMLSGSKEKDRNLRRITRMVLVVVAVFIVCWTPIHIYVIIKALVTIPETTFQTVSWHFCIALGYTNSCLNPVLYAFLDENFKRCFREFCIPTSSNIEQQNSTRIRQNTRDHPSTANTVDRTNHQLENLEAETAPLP
T1 sequence (P35372 whole entry): as the sequence (P35372 whole entry, species assumed) above
T2 sequence (P35372 whole entry): as the sequence (P35372 whole entry, species assumed) above

Structure (SMILES)	Emax [1] [%]	EC50 [2] [nM]	EC50 (μ opioid receptor (MOR)) [nM]	PCO2, 5 min before administration (SD rats) [mmHg]	PCO2, 5 min after administration (SD rats) [mmHg]	PCO2, 30 min after administration (SD rats) [mmHg]	PCO2, 60 min after administration (SD rats) [mmHg]	PCO2, 120 min after administration (SD rats) [mmHg]	AUC [3] [ng·h/mL]	half-life [3] [h]	Cmax [3] [ng/mL]
Cc1ccc(CNCCC2(c3ccccn3)CCOC3(CCCC3)C2)c(C)c1 (stereo not shown) [Example H08, (2,4-dimethylbenzyl)-[2-(9-(pyridin-2-yl)-6-oxaspiro[4.5]decan-9-yl)ethyl]amine]	3.8	4.77	3.42	33.77 ± 0.88	35.48 ± 1.54	34.03 ± 0.69	34.27 ± 1.4	34.83 ± 1.15	–	–	–
FC(F)(F)Oc1cccc(CNCCC2(c3ccccn3)CCOC3(CCCC3)C2)c1 (stereo not shown) [Example H01, (3-trifluoromethoxybenzyl)-[2-(9-(pyridin-2-yl)-6-oxaspiro[4.5]decan-9-yl)ethyl]amine]	6.26	4.93	6.71	–	–	–	–	–	295 ± 1	1.11 ± 0.24	202 ± 33.5
Cc1ccc(CNCCC2(c3ccccn3)CCOC3(CCCC3)C2)cc1C (stereo not shown) [Example H07, (3,4-dimethylbenzyl)-[2-(9-(pyridin-2-yl)-6-oxaspiro[4.5]decan-9-yl)ethyl]amine]	1.55	3.08	3.15	–	–	–	–	–	583 ± 31.8	1.25 ± 0.05	483 ± 33.3
Fc1ccc(C2(CCNCc3sccc3OC(F)F)CCOC3(CCCC3)C2)nc1 (stereo not shown) [Example H33, {2-[9-(5-fluoro-pyridin-2-yl)-6-oxa-spiro[4.5]decan-9-yl]-ethyl}-((3-difluoromethoxythiophen-2-yl) -methyl)-amine]	8.69	12	5.25	–	–	–	–	–	–	–	–
FC(F)(F)c1ccc2c(c1)CN(CCC1(c3ccccn3)CCOC3(CCCC3)C1)CC2 (stereo not shown) [Example H19, 2-[2-(9-(pyridin-2-yl)-6-oxaspiro[4.5]decan-9-yl)ethyl]-7-trifluoromethyl-1,2,3,4-tetrahydroisoquinoline]	1.12	18.6	5.43	–	–	–	–	–	–	–	–
Cc1ccc(CNCCC2(c3ccc(F)cn3)CCOC3(CCCC3)C2)cc1C (stereo not shown) [Example H31, {2-[9-(5-fluoro-pyridin-2-yl)-6-oxa-spiro[4.5]decan-9-yl]-ethyl}-(3,4-dimethyl-benzyl)-amine]	5.06	8.73	3.83	–	–	–	–	–	–	–	–
COc1ccsc1CNCC(C)C1(c2ccccn2)CCOC2(CCCC2)C1 (stereo not shown) [Example H26]	22.6	6.95	1.76	–	–	–	–	–	–	–	–
FC(F)(F)Oc1cc(Br)ccc1CNCCC1(c2ccccn2)CCOC2(CCCC2)C1 (stereo not shown) [Example H11, (4-bromo-2-trifluoromethoxybenzyl)-[2-(9-(pyridin-2-yl)-6-oxaspiro[4.5]decan-9-yl)ethyl]amine]	2.28	7.31	2.08	–	–	–	–	–	–	–	–
FC(F)(F)Oc1ccccc1CNCCC1(c2ccccn2)CCOC2(CCCC2)C1 (stereo not shown) [Example H22, (2-trifluoromethoxybenzyl)-[2-(9-pyridin-2-yl-6-oxa-spiro[4.5]decan-9-yl) -ethyl]-amine]	2.31	11.9	1.04	–	–	–	–	–	–	–	–
N#Cc1cccc(CNCCC2(c3ccccn3)CCOC3(CCCC3)C2)c1OC(F)(F)F (stereo not shown) [Example H13]	3.41	9.43	5.16	–	–	–	–	–	–	–	–
Fc1ccc(C2(CCNCc3ccccc3OC(F)F)CCOC3(CCCC3)C2)nc1 (stereo not shown) [Example H29, {2-[9-(5-fluoro-pyridin-2-yl) -6-oxa-spiro[4.5]decan-9-yl]-ethyl}-(2-(difluoromethoxy)-benzyl) -amine]	7.07	10.4	6.09	–	–	–	–	–	–	–	–
Clc1ccsc1CNCCC1(c2ccccn2)CCOC2(CCCC2)C1 (stereo not shown) [Example H05, ((3-chloro-thiophen-2-yl)methyl)-[2-(9-(pyridin-2-yl)-6-oxaspiro[4.5]decan-9-yl)ethyl]amine]	0	10.2	7.05	35.65 ± 0.44	36.15 ± 1.93	33.65 ± 0.49	34.85 ± 0.43	35.7 ± 0.95	336 ± 14.1	3.93 ± 0.13	261 ± 21
c1ccc(C2(CCN3CCc4ccsc4C3)CCOC3(CCCC3)C2)nc1 (stereo not shown) [Example H23, 6-[2-(9-pyridin-2-yl-6-oxa-spiro[4.5]decan-9-yl)-ethyl]-4,5,6,7-tetrahydro-thieno[2,3-c]pyridine]	2.2	9.73	4.08	–	–	–	–	–	–	–	–
